We go through 82 sequences from the OligoGym collection.

The target in the data set is HSD17B13. The settings on record: ASO, HepaRG.

After the bases stand the sugars from the 5' end (letter, count) and the backbone: PS all phosphorothioate, else s phosphorothioate and o phosphodiester by linkage. Methylation of C is not given here. e = 2'-O-(2-methoxyethyl) (MOE); k = constrained ethyl (cEt); d = 2'-deoxy (DNA); m = 2'-O-methyl

Regarding AATGTCTTGGTAATCT (sugars k3 d10 k3, PS), the target mRNA inhibition (1 µM) turned out to be 20%.
In turn, ATATTATCAGGACTGA (sugars k3 d10 k3, PS) gave a target mRNA inhibition (1 µM) of 47%.
Still for that read-out and setting: in the case of “GTCTUGATGTAGTGGG (sugars k3 d1 m1 d8 k3, PS)” it was 63%.
The sequence “GTAATCACAAGTAAGG (sugars kkdddddddddkekek, PS)” registered a target mRNA inhibition (0.02 µM) of 0%; a target mRNA inhibition (0.078 µM) of 2%; a target mRNA inhibition (0.313 µM) of 35%; a target mRNA inhibition (1 µM) of 72%; a target mRNA inhibition (1.25 µM) of 49%; a target mRNA inhibition (5 µM) of 70%.
Regarding TAAAATAGGGTGCAGT (sugars k3 d10 k3, PS), the target mRNA inhibition (1 µM) came out at 58%.
On to TTGATATTCTGTGGCA (sugars k3 d10 k3, PS), for which the target mRNA inhibition runs as follows: (0.02 µM) 0%; (0.078 µM) 17%; (0.313 µM) 58%; (1 µM) 87%; (1.25 µM) 80%; (5 µM) 94%.
AATAATAGCTCTATTG (sugars k3 d10 k3, PS) showed a target mRNA inhibition (1 µM) of 0%.
The same measure, in the same setting: then ACAGACTGTTGAGCTC (sugars k3 d10 k3, PS), with 53%; and ACTGATACATACCACT (sugars k3 d10 k3, PS), with 52%.
Still for that read-out and setting: in the case of AGACTTCTTACGACTT (sugars k3 d10 k3, PS) it was 41%; in that of TGGTCTAAAGTGCTGG (sugars k3 d10 k3, PS), 61%.
Consider ATAACTGAGCTAGACA (sugars k3 d10 k3, PS), for which, where the note is “1 µM”, the target mRNA inhibition was 71%.
In the case of TAAGGTAAACTAAAGT (sugars k3 d10 k3, PS), the target mRNA inhibition (1 µM) was determined as 9%.
Turning to ATCAATGCCTTAGCCC (sugars k3 d10 k3, PS), the target mRNA inhibition (1 µM) came to 38%.
In turn, “GCAAGCCAACAGAGAG (sugars k3 d9 k3 e1, PS)” came in with a target mRNA inhibition (1 µM) of 38%.
As for TAGCTGTGCACTCATT (sugars k3 d10 k3, PS), where the note is “1 µM”, the target mRNA inhibition turned out to be 40%.
Under “1 µM”, TCTACAAAACTGGTAT (sugars k3 d10 k3, PS) came in with a target mRNA inhibition of 9%.
Turning to CTGTCTCCAATACAGG (sugars k3 d10 k3, PS), the target mRNA inhibition (1 µM) stood at 29%.
As to TGAGTTACATTACAGC (sugars k3 d10 k3, PS), the target mRNA inhibition amounted to 16% (0.02 µM); 34% (0.078 µM); 72% (0.313 µM); 90% (1 µM); 86% (1.25 µM); 89% (5 µM).
On to GACAATGTGCAGCTCT (sugars k3 d10 k3, PS), for which the target mRNA inhibition (1 µM) turned out to be 67%.
With GCAGTTATTAGAAGTC (sugars k3 d10 k3, PS), the target mRNA inhibition runs as follows: (0.02 µM) 9%; (0.078 µM) 22%; (0.313 µM) 41%; (1 µM) 76%; (1.25 µM) 74%; (5 µM) 84%.
Sequence ATCCCAACCAAACTTC (sugars k3 d10 k3, PS) gave a target mRNA inhibition (1 µM) of 15%.
In the case of TGTAAGAGTCAGTATC (sugars k3 d10 k3, PS), the target mRNA inhibition (1 µM) turned out to be 43%.
The same measure, in the same setting: then ATTAACATTCGGCTAG (sugars k3 d10 k3, PS), with 17%; and “GGTTGAGATAAAGCTG (sugars kkdddddddddkekek, PS)”, with 60%.
Sequence AAGGCCTGAAGTTCTG (sugars k3 d10 k3, PS) had a target mRNA inhibition (1 µM) of 5%.
The sequence “TTACAGCATCAAGACA (sugars k3 d9 k3 e1, PS)” registered a target mRNA inhibition (1 µM) of 44%.
“TGTAGTGGGAGTCGGA (sugars kkdddddddddkekek, PS)” had a target mRNA inhibition (1 µM) of 27%.
Still for that read-out and setting: then CATGGCTACAGATTGG (sugars k3 d10 k3, PS), with 54%.
The same measure, in the same setting: in the case of AGAGGATAGTGAACAT (sugars k3 d10 k3, PS) it was 59%; in that of “TGTGTTCTTGTTGATA (sugars k3 d9 k3 e1, PS)”, 65%; in that of TGAATCATGATTGAAT (sugars k3 d10 k3, PS), 38%.
Same read-out and setting: then “GAGAUAAAGCTGCCTG (sugars k3 d1 m1 d8 k3, PS)”, with 39%; and GAAGTGTAATGCTCCC (sugars k3 d10 k3, PS), with 71%.
Regarding ATGAAGTTAGTATAGT (sugars k3 d10 k3, PS), the target mRNA inhibition (1 µM) was 55%.
The same measure, in the same setting: in the case of GGAGCTAGATACTCAA (sugars k3 d10 k3, PS) it was 42%.
Where the note is “1 µM”, GTCATAAAGGTGGGAT (sugars k3 d10 k3, PS) showed a target mRNA inhibition of 28%.
Same read-out and setting: then GTTGATATTTCCATCT (sugars k3 d10 k3, PS), with 55%; and TATTCCAGGATTTGCT (sugars k3 d10 k3, PS), with 43%; and GTTGACTAATGCAAGA (sugars k3 d10 k3, PS), with 59%.
For the sequence GCTAGACAATTGCAAA (sugars k3 d10 k3, PS), the target mRNA inhibition (1 µM) was 77%.
On the same count and under the same terms, then GGCCGCACACTGAAGC (sugars k3 d10 k3, PS), with 9%; and GACTGCTGCTAGTGCC (sugars k3 d10 k3, PS), with 67%; and GAGTATGACAACTGGA (sugars k3 d10 k3, PS), with 23%.
Still for that read-out and setting: then TTATGTACCAAACTTG (sugars k3 d10 k3, PS), with 53%; and TATTCTCTTGACAATG (sugars k3 d10 k3, PS), with 47%; and “AGGCTAGGGAAATCTT (sugars kkdddddddddkekek, PS)”, with 45%.
Consider “ACCAAACTTCCAGCAG (sugars k3 d9 k3 e1, PS)”, for which the target mRNA inhibition (1 µM) turned out to be 36%.
The same measure, in the same setting: in the case of TCTATACAAAGGCAGT (sugars k3 d10 k3, PS) it was 53%; in that of GGACTTCAGAGTTATA (sugars k3 d10 k3, PS), 36%.
Still for that read-out and setting: then TGCAGCATTGATTCGA (sugars k3 d10 k3, PS), with 47%; and CTGCTGCTAGTGCCAA (sugars k3 d10 k3, PS), with 57%.
Same read-out and setting: in the case of CCACTGTGACGATGTG (sugars k3 d10 k3, PS) it was 0%; in that of “GCTAGTGCCAAACCAA (sugars k3 d9 k3 e1, PS)”, 70%.
In the case of CCTGATTTAGAGAGCG (sugars k3 d10 k3, PS), for the setting “1 µM”, the target mRNA inhibition amounted to 42%.
As for CATCATCGATGGAAGA (sugars k3 d10 k3, PS), the target mRNA inhibition (1 µM) is 14%.
On to AAATTAGAGGCCCAGG (sugars k3 d10 k3, PS), for which the target mRNA inhibition (1 µM) was determined as 43%.
Turning to AGTAGTAATTCTAAAC (sugars k3 d10 k3, PS), the target mRNA inhibition (1 µM) came to 23%.
With AGAATACGCTGAGAGT (sugars k3 d10 k3, PS), the target mRNA inhibition (1 µM) worked out at 56%.
With TAGTTGGTAGCTTGCT (sugars k3 d10 k3, PS), the target mRNA inhibition by setting is: (0.02 µM) 7%; (0.078 µM) 31%; (0.313 µM) 46%; (1 µM) 66%; (1.25 µM) 74%; (5 µM) 94%.
As for GGGATAAACTGTTCTT (sugars k3 d10 k3, PS), the target mRNA inhibition (1 µM) was found to be 47%.
Where the note is “1 µM”, TATTTAGCATTGCCTG (sugars k3 d10 k3, PS) gave a target mRNA inhibition of 12%.
In turn, TAACGGTGATCAAATG (sugars k3 d10 k3, PS) showed a target mRNA inhibition (1 µM) of 17%.
In the case of “ATAGUCCATGCAAAAG (sugars k3 d1 m1 d8 k3, PS)”, the target mRNA inhibition (1 µM) was determined as 57%.
The sequence CAAACCTTGAATGAGT (sugars k3 d10 k3, PS) had a target mRNA inhibition (1 µM) of 53%.
Regarding TGAGAAGGCGGTATCA (sugars k3 d10 k3, PS), where the note is “1 µM”, the target mRNA inhibition is 20%.
On the same count and under the same terms, then AAATGTCTTGGTAATC (sugars k3 d10 k3, PS), with 30%; and ACTTGAACAGTCTTAA (sugars k3 d10 k3, PS), with 63%; and TAAGAGGCATGAAAGG (sugars k3 d10 k3, PS), with 52%.
Where the note is “1 µM”, ACTATCAGAACAGTTC (sugars k3 d10 k3, PS) gave a target mRNA inhibition of 62%.
For the sequence “AGCTUTTGTCCACCTT (sugars k3 d1 m1 d8 k3, PS)”, under “1 µM”, the target mRNA inhibition is 72%.
The same measure, in the same setting: then CCGCGCTTATTAATAT (sugars k3 d10 k3, PS), with 21%.
In the case of TTTGAACCGTATTCCC (sugars k3 d10 k3, PS), the target mRNA inhibition came out at 36% (0.02 µM); 41% (0.078 µM); 57% (0.313 µM); 69% (1 µM); 79% (1.25 µM); 85% (5 µM).
As to GTAAACTGTATGCCTC (sugars k3 d10 k3, PS), the target mRNA inhibition amounted to 5% (0.02 µM); 30% (0.078 µM); 43% (0.313 µM); 74% (1 µM); 78% (1.25 µM); 86% (5 µM).
In the case of “TAGCCAGTACAGTTCC (sugars k3 d9 k3 e1, PS)”, the target mRNA inhibition (1 µM) was determined as 58%.
Consider CTCCTTATTTGTTAGA (sugars k3 d10 k3, PS), for which, under “1 µM”, the target mRNA inhibition was determined as 26%.
Still for that read-out and setting: in the case of “GTGTAAGCTGAGAGTT (sugars k3 d1 m1 d8 k3, PS)” it was 55%; in that of GGGTGGTAACGGTGAT (sugars k3 d10 k3, PS), 46%; in that of GTATTTGGGTGTTCTG (sugars k3 d10 k3, PS), 36%.
In turn, GAGTATAAATGGCAAT (sugars k3 d10 k3, PS) gave a target mRNA inhibition (1 µM) of 53%.
Still for that read-out and setting: then TTATATGAGGTCTGTA (sugars k3 d10 k3, PS), with 32%; and “GTAAUCACAAGTAAGG (sugars k3 d1 m1 d8 k3, PS)”, with 20%.
